Positions of bridges follow the written chain, without caps; N, C: chain ends. No end group written: not given here.
How the values were obtained:
neutrophils [1] = assay: In vitro neutrophil migration to IgA-coated beads; assay type: cell-based, human; settings: fluorimeter; for block of IgA-induced neutrophil migration (in words): oxidated or small cyclic peptides, 3 independent experiments in triplicates, Supporting Information Fig. 2
Method: Figure 3 Peptide mimetics block IgA‐induced migration in vitro. Percentage of migration of fluorescently labelled neutrophils to IgA‐coated beads, either in the presence or absence of peptide mimetics. The number of migrated neutrophils was determined with a fluorimeter. Neutrophil migration to IgA was normalized to 100% (dotted line). Neutrophils or beads were pre‐incubated with (A) linear or (B) cyclic peptides mimicking FcαRI‐sequences (white bars) or IgA‐sequences (black bars). Data are representative of three independent experiments, performed in triplicates. Mean ± SD is shown. Statistical analysis: ANOVA *p< 0.05, **p < 0.01.
(§1) In vitro migration assays were performed as previously described 4. All experiments were performed in triplo. Migration towards IL‐8 (30 ng/mL) was measured after pre‐incubating neutrophils with peptides (1 μg/mL) or anti‐IL‐8 blocking antibody (10 μg/mL, Pharmingen).
Supporting Information Figure 2 […]
Percentage of migration of fluorescently labelled neutrophil to IgA-coated beads, either in the presence or absence of peptide mimetics. The number of migrated neutrophils was determined with a fluorimeter. Neutrophil migration to IgA was normalized to 100% (dotted line). Neutrophils or beads were pre-incubated with (A) oxidated or (B) small cyclic peptides mimicking FcαRI-sequences (white bars) or IgA-sequences (black bars). Data are representative of 3 independent experiments, performed in triplicates. Mean ± SD of one representative experiment is shown. Statistical analysis: ANOVA

neutrophils [2] = assay: IL-8 induced chemotaxis of neutrophils; assay type: cell-based, human; settings: IL-8 30 ng/mL; neutrophils pre-incubated with peptides 1 μg/mL; fluorimeter; three times in triplo; Supporting Information Fig. 3
Method: as §1
Supporting Information Figure 3 […]
medium IL-8anti-IL-8IgA1-linFcĮRI1-linFcĮRI9-ox
Number of fluorescently labelled neutrophils which migrated to IL-8 in a chemotaxis chamber, either in the presence or absence of peptide mimetics. The number of migrated neutrophils was determined with a fluorimeter. Neutrophil migration to IL-8 is indicated with a dotted line.
Medium and blocking IL-8 antibody (anti-IL-8) were used as controls. Experiments were performed three times in triplo. Mean ± SD of one representative experiments in triplo is shown.
Statistical analysis: ANOVA

neutrophils [3] = assay: Ex vivo human skin migration assay (IgA-coated beads injected in the dermis); assay type: cell-based; settings: full thickness human skin grafts; peptide 1 μg/mL, pre-incubation 20 min, 4°C; incubated overnight (24 h) at 37°C; fluorescence microscopy; three independent experiments in duplicate; Fig. 4
Description: To mimic blocking of neutrophil migration toward aberrant IgA‐antigen complexes in the skin, an ex vivo migration assay was established. […] No influx toward BSA‐coated beads was observed, whereas massive influx of neutrophils toward the injected IgA‐coated beads was observed (Fig 4A).
Figure 4 Peptide mimetics block neutrophil migration and penetrate the dermis in an ex vivo human skin model. Migration of green‐fluorescent neutrophils to BSA‐ (left panel) or IgA‐ (right panel) coated beads (indicated with circles) in the dermis of ex vivo skin explants (A). Migration of green‐fluorescent neutrophils to IgA‐coated beads (indicated with circles) after pre‐incubation with non‐blocking peptide FcαRI9‐ox (B), linear peptides (C) or cyclic CLIPS‐peptides (D). Images are representative of three independent experiments, performed in duplicate. Scale bar = 250 μm. Images are 10× magnified.
For ex vivo human skin migration assays, full thickness mammary skin grafts (epidermis and dermis) were placed in an ex vivo tissue incubation chamber with the dermis face up 6, 49. IgA‐coated beads were pre‐incubated with FcαRI‐peptides (1 μg/mL, 20 min, 4°C) and injected intracutaneously via the dermis. BSA‐coated beads were used for control. Next, PKH‐67 labeled neutrophils (4 × 10^6 cells/well) were added on the dermis. Alternatively, IgA‐coated beads were injected intracutaneously and PKH‐67 labeled neutrophils (4 × 10^6 cells/well) that were pre‐incubated with IgA‐peptides (1 μg/mL, 20 min, 4°C) were added onto the dermis. Cells were supplemented with IFN‐γ to prevent early apoptosis (300 units/mL; Boehringer Ingelheim, Ingelheim am Rhein, Germany). Skin was incubated overnight at 37°C, after which biopsies of the injected skin were taken and snap frozen. Cryosections of 6 μm were analysed with a Nikon eclipse e800 (Nikon instruments Europe BV, Amsterdam, The Netherlands).

[4] = system: IgA binding to FcαRI (on neutrophils); assay: Ligand binding assay: neutrophil binding to IgA-coated plates; assay type: cell-based; settings: peptide 1 μg/mL, pre-incubation 20 min, 4°C, calcein labeled human neutrophils 2.5 × 10^5 cells/well, 37°C, fluorimeter, three independent experiments in triplicates, Fig. 1
Method: Figure 1 Peptide mimetics inhibit IgA binding to FcαRI. Percentage of ligand binding between IgA and FcαRI (on neutrophils), either in the presence or absence of peptide mimetics. Fluorescently labelled human neutrophils, isolated from blood, were added to IgA‐coated plates, and the number of neutrophils attaching to the plate was measured with a fluorimeter. IgA binding to FcαRI was normalized to 100% (indicated with dotted line). Neutrophils or plates were pre‐incubated with either linear peptides (A) or cyclic CLIPS‐peptides (B) mimicking FcαRI‐sequences (white bars) or IgA‐sequences (black bars). Data are representative of three independent experiments, performed in triplicates. Mean is shown, error bars refer to SD (n = 3). Statistical analysis: ANOVA*p< 0.05, **p < 0.01.
Neutrophils were isolated from heparinized peripheral human blood from healthy donors after informed consent was given, using standard Lymphoprep (Axis‐shield, Dundee, Scotland) density gradient centrifugation. […]
Plates (Nunc‐ImmunoMaxiSorp™, Roskilde, Denmark) were coated with IgA, or BSA (as control) (10 μg/mL, 3 h, 37°C), washed and pre‐incubated with FcαRI‐peptides (1 μg/mL, 20 min, 4°C). […] Attached cells were lysed and fluorescence of supernatant was measured with a fluorimeter (485 nm excitation/520 nm emission filters; Fluostar Galaxy, BMG Labtechnologies, Offenburg, Germany), as measure of binding. […]

Row | Substance | block of IgA-induced neutrophil migration (in words) (neutrophils [1]) | neutrophil migration to IgA-coated beads in ex vivo human skin (neutrophils [3]) | other results
1 | SCEALPLAFTCKT (also: sidechain bridge or staple (positions not given here)) [IgA3‐CLIPS] | do not block | – | –
2 | YQACHYRFRC (also: sidechain bridge or staple (positions not given here)) [FcαRI5‐CLIPS] | do not block | – | –
3 | RYQAQCRIGHYRFC (disulfide 6-14 (inferred)) [FcαRI6‐ox] | do not block | – | –
4 | SSCVGHEALPLAFTCKT (disulfide 3-15 (inferred)) [IgA7‐ox] | do not block | – | –
5 | SSMCGHEALPLAFCQKT (disulfide 4-14 (inferred)) [IgA6‐ox] | do not block | – | –
6 | CEALPLAFTCKT (also: sidechain bridge or staple (positions not given here)) [IgA2‐CLIPS] | do not block | – | –
7 | GRYQAQCRIGHYRFCYSD (disulfide 7-15 (inferred)) [FcαRI9‐ox] | do not block | did not inhibit | effect on IL-8 induced chemotaxis (neutrophils [2]): do not block
8 | SSMVGHEALPLAFTQKT [IgA1‐lin] | – | completely blocked | blocking of neutrophil binding to IgA-coated wells [4]: approximately 50%; block of neutrophil migration to IgA-coated beads (neutrophils [1]; neutrophils or beads pre-incubated with peptides, three independent experiments in triplicates, Fig. 3): 60–80%; effect on IL-8 induced chemotaxis (neutrophils [2]): do not block
9 | SSCVGHEALPLAFTCKT (also: sidechain bridge or staple (positions not given here)) [IgA7‐CLIPS] | – | fully abrogated | –
10 | CHYRFRC (also: sidechain bridge or staple (positions not given here)) [FcαRI3‐CLIPS] | do not block | – | –

Reference: PMC5659136, “Peptide mimetics of immunoglobulin A (IgA) and FcαRI block IgA‐induced human neutrophil activation and migration” (European Journal of Immunology, 2017)
